We go through five compounds from publication PMC3410856, “Structural Analysis of Specific Metal Chelating Inhibitor Binding to the Endonuclease Domain of Influenza pH1N1 (2009) Polymerase” (PLoS Pathogens, 2012).

One data set in a line: in vitro. The note with it: dog.
Data set [1] deals with Influenza A virus A/Aichi/2/68 (H3N2). Put plainly: microbe, parasite or virus in culture. It counts as cell-based. The settings on record: MDCK cells, MOI 0.05, 48 h, CellTiter-Glo, 95% confidence intervals; for IC50: Influenza A virus, H3N2, read-out: antiviral activity IC50 (reduction of virus induced cytopathic effect). (In general: In ATP-based viability assays light output follows the ATP content of the culture.)

For another data set, the target named is T1, H1N1 PA-Nter (Influenza A virus, UniProt C3W5S0).
T1 construct: PA-N-ter (residues 1–198) from A/California/04/2009-pH1N1; made in house; host or cells: E. coli BL21(DE3)
It counts as binding.

The next data set deals with influenza polymerase. The settings on record: read-out: IC50 in vitro cap-dependent transcriptase assay; cited from earlier work.

SMILES strings stand for the structures. Read-outs that look alike come from different tables or passages of the source.

`O=C(O)C(=O)CC(=O)c1ccccc1` [DPBA, 2,4-dioxo-4-phenylbutanoic acid]: the CC50 in “in vitro” is above 200 µM. Besides, the “antiviral activity IC50 (reduction of virus induced cytopathic effect)” value in data set [1] is “inactive”; in data set [1] (listed as DBPA), “did not show any inhibitory effect”. Also, the “Tm (apparent melting temperature)” value on H1N1 PA-Nter (5 µM PA-Nter, 500 µM inhibitor, no ligand 53.5) worked out at 65 °C.
For the compound `O=C(O[C@@H]1Cc2c(O)cc(O)cc2O[C@@H]1c1cc(O)c(O)c(O)c1)c1cc(O)c(O)c(O)c1` [EGCG, [(2R,3R)-5,7-dihydroxy-2-(3,4,5-trihydroxyphenyl)chroman-3-yl]3,4,5-trihydroxybenzoate], the CC50 in the data set “in vitro” is 54.7 ± 4.5 µM. Also, the IC50 (usually the midpoint of a concentration-inhibition curve) in data set [1] is 1.1 ± 0.4 µM.
Regarding `O=C(O)/C(O)=C/C(=O)C1(Cc2ccc(Cl)cc2)CCCN(S(=O)(=O)Cc2ccccc2)C1` (stereo not shown) [R05-1, 4-[3-[(4-chlorophenyl)methyl]-1-(phenylmethylsulpho)-3-piperidinyl]-2-hydroxy-4-oxo-2-butenoic acid], the CC50 in the data set “in vitro” was above 100 µM. Further, the IC50 at influenza polymerase is 0.19 µM; in data set [1], 20.4 ± 3 µM. Besides, the “Tm (apparent melting temperature)” value on H1N1 PA-Nter amounted to 69 °C.
In “in vitro”, `O=C(O)/C(O)=C/C(=O)C1(Cc2ccc(Cl)cc2)CCN(CC2CCCCC2)CC1` [R05-2, 4-[1-cyclohexylmethyl-4-(p-chlorobenzyl)piperidin-4-yl]2,4-dioxobutanoic acid] showed a CC50 above 50 µM. Also, in data set [1], the IC50 is 15.9 ± 4 µM. The “Tm (apparent melting temperature)” value at H1N1 PA-Nter was found to be 71 °C.
Taken in the same sequence, the figures for `O=C(O)/C(O)=C/C(=O)C1(Cc2ccc(Cl)cc2)CCCN(Cc2ccccc2)C1` (stereo not shown) [R05-3, 4-[N-benzyl-3-(4-chlorobenzyl)piperidin-3-yl]2,4-dioxobutanoic acid] were 79.8 ± 11.5 µM, 19.9 ± 2 µM and 69 °C.
